Test [1] concerns the target T1, succinyl-diaminopimelate desuccinylase (HiDapE) (Haemophilus influenzae, UniProt P44514).
T1 construct: gene dapE; recombinant HiDapE, His6-tag cleaved with TEV protease
The test can be described thus: ninhydrin-based assay of purified HiDapE with N6-methyl-L,L-SDAP substrate, […] nm. In kind it is biochemical.

Test [2] has as its target T1, succinyl-diaminopimelate desuccinylase (HiDapE). As to the kind of experiment: hydrolysis by purified HiDapE monitored at […] nm (kcat/Km). In kind it is biochemical.

What is called IC50 is the concentration that inhibits the measured activity by half. Read a low IC50 as greater potency.

T1 sequence (P44514 whole entry): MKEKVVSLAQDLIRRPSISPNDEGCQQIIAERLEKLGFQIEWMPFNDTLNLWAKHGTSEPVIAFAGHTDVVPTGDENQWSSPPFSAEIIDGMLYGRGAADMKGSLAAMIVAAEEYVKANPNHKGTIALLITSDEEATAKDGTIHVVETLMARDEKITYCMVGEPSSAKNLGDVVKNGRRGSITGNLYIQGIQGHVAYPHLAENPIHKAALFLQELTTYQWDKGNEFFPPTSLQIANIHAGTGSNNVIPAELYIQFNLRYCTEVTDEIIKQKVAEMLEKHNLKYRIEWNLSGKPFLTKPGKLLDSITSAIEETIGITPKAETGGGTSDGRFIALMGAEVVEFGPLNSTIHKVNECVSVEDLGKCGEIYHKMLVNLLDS

As for `O=C(O)c1cccc(S)c1` [3-mercaptobenzoic acid], it took 21.8 µM to reach half-maximal inhibition in test [1] (IC50).
In the case of `CN[C@@H](CCC[C@H](NC(=O)CCC(=O)O)C(=O)O)C(=O)O` [1b, (2S,6S)-2-(3-Carboxypropanamido)-6-(methylamino)heptanedioic acid], in test [2], the “hydrolysis by purified HiDapE monitored at 225 nm (kcat/Km)” value is recorded as 3.87x 10^4 M^-1S^-1.
In test [1], `OB(O)c1cccs1` [2-thiopheneboronic acid] showed an IC50 of 111 µM.

(Values after PMC5919655, “Practical spectrophotometric assay for the dapE-encoded N-succinyl-L,L-diaminopimelic acid desuccinylase, a potential antibiotic target” (PLoS ONE, 2018).)
